# Assay results taken from patent US5977435A, “Plant phosphatases” (Performance Plants, Inc., priority 1997, dated 1999).
# Where a name gives a salt, the structure may show the parent alone. Read-outs that look alike come from different tables or passages of the source.
# T1: potato phosphatase (Solanum tuberosum, UniProt Q6J5M8)
# T1 sequence (Q6J5M8 with tags, fused parts or gaps V118I/E238V/S277N/V282G/E319A/A394T/S415A/T416I/D418E/I426Y/H428S/N437A): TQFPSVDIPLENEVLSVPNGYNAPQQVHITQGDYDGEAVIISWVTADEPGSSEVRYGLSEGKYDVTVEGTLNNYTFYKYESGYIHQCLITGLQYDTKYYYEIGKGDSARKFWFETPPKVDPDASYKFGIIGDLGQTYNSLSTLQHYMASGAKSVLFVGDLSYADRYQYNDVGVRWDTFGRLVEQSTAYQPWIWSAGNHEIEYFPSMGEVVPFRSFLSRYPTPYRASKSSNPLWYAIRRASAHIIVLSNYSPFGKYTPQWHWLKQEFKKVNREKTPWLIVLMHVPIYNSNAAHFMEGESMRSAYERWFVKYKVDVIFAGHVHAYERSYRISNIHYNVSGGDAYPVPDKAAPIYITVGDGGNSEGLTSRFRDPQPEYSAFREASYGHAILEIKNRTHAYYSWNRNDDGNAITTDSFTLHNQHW
# B1: Phosvitin: egg yolk storage phosphoprotein (protein)
# chain: AEFGTEPDAKTSSSSSSASSTATSSSSSSASSPNRKKPMDEEENDQVKQARNKDASSSSRSSKSSNSSKRSSSKSSNSSKRSSSSSSSSSSSSRSSSSSSSSSSNSKSSSSSSKSSSSSSRSRSSSKSSSSSSSSSSSSSSKSSSSRSSSSSSKSSSHHSHSHHSGHLNGSSSSSSSSRSVSHHSHEHHSGHLEDDSSSSSSSSVLSKIWGRHEIYQ
# modifications: phosphoserine (Ser is the predominant phosphorylated amino acid of phosvitin)
# notes: egg yolk storage phosphoprotein
# Legend:
# potato phosphatase [1] = molecular target: T1, potato phosphatase; experiment: biochemical; type: biochemical; set-up: mature chain from Thr30, C-terminus not determined
# Description: Enzyme activity in the presence of effectors is expressed relative to the control set at 100%.
# (§1) Assays were initiated by the addition of enzyme preparation. One unit of phosphatase activity is defined as the quantity of enzyme that would catalyze the hydrolysis of 1 […] of substrate/min at 25° C.
# potato phosphatase [2] = molecular target: T1, potato phosphatase; experiment: biochemical; type: biochemical; set-up: mature chain from Thr30, C-terminus not determined; settings: for activation of the phosphatase: 4 mM, added as Cl- salt, Ca, Co, Mn with no added Mg2+
# Description: Unless otherwise stated all kinetic studies of the potato phosphatase were performed with PEP using assay A (infra).
# The phosphatase was activated approximately 40% in the presence of saturating (4 mM) Mg^2+ (added as MgCl2). Ca^2+, Co^2+, and Mn^2+ were individually tested as Cl^- salts at 4 mM, with no added Mg^2+, and found to uniformly activate the enzyme by about 30%. […]. […] All subsequent kinetic studies were conducted in the presence of 4 mM MgCl2.
# as §1
# potato phosphatase [3] = molecular target: T1, potato phosphatase; experiment: Phosphatase assay B, substrate specificity; settings: for Vmax: pH 5.8, 25° C; for activity of purified enzyme with compound as substrate: tested at 5 mM
# Description: Phosphatase activity was determined using assay B and a wide range of compounds, tested at a total concentration of 5 mM unless otherwise specified.
# Phosphatase (0.05 units) was incubated in 1.5 mL cuvettes with 0.9 mL of 50 mM MES-NaOH (pH 5.8) containing 4 mM MgCl2 and an alternative substrate (5 mM unless otherwise indicated) for 6 min at 25° C. Reactions were terminated by the sequential addition of 0.1 mL reagent A (3 M H2 SO4 containing 20 mM ammonium molybdate) and […] of 1% (v/v) Triton X-100. Samples were incubated at 25° C. for 20 min and the A660 was determined. To calculate activities, a standard curve over the range of […] Pi was constructed for each set of assays. Assays were performed in triplicate and controls were run for background amounts of Pi present at each substrate concentration by adding reagent A before the enzyme.
# [4] = test system: potato tuber phosphotyrosyl proteins; experiment: Dephosphorylation of potato tuber phosphotyrosyl proteins by potato tuber phosphatase; type: biochemical, Solanum tuberosum; settings: 1 mM present during incubation
# Description: A desalted potato tuber extract was incubated at 25° C. in the absence (-) and presence (+) of 30 units/mL purified potato tuber phosphatase. Aliquots were removed at 2 and 19 h and analyzed by immunoblotting using anti-(P-Tyr) IgG (Kamps and Sefton, 1988). The relative P-Tyr content of the 7 antigenic polypeptides was estimated by laser densitometric quantification of the immunoblots as described in the examples. Unless otherwise noted, all values represent the means±SE of triplicate determinations. ^a, the mean of duplicate determinations.
# Electroblotting was performed by the method of Moorhead and Plaxton (1990), with the addition of […] o-vanadate to the transfer buffer when maintenance of phosphotyrosyl residues was desired. All immunoblots to be probed with the anti-(black mustard PEP-specific phosphatase) IgG (Duff et al, 1991a) were first pre-treated with sodium m-periodate according to Laine (1988) so as to oxidize antigenic oligosaccharide chains of endogenous tuber glycoproteins. Immunological detection of phosphotyrosylated tuber proteins using anti-(P-Tyr) IgG (Kamps and Sefton, 1988) was performed as referenced above except that the blocking buffer contained 5% (w/v) bovine serum albumin (fraction V) and 1% (w/v) ovalbumin instead of 3% (w/v) defatted milk powder.
# Antigenic polypeptides were visualized using an alkaline-phosphatase-taggedsecondary antibody (Moorhead and Plaxton, 1990). Immunological specificities were confirmed by performing immunoblots in which rabbit preimmune serum was substituted for the affinity-purified IgGs. An LKB Ultroscan XL Enhanced Laser Densitometer was used to scan indicated immunoblots. Densitometric data were analysed using the LKB Gelscan XL software (version 2.1). Immunoreactive polypeptides were quantified in terms of their relative absorbance at 633 nm wavelength (A633).
# Peeled and diced potato tuber tissue (5 g) was homogenized with a Polytron in 1 volume of 100 mM MES-NaOH (pH 5.8) containing 2 mM PMSF, 2 mM DTT, and 1 mM EDTA. The homogenate was centrifuged for 10 min at 13,000 g in an Eppendorf microfuge, and a 3-mL aliquot of the supernatant fluid was passed at 4° C. through a BioRad Econo-Pac 10DG desalting column that had been pre-equilibrated in homogenization buffer lacking PMSF. Aliquots (0.1 mL) of the desalted crude extract were incubated at 25° C. with and without 3 units of the purified potato phosphatase. Samples were removed at 0, 2 and 19 h and analyzed by immunoblotting using the anti-(P-Tyr) IgG as described supra. Laser densitometric scanning and immunoquantification of the blots was performed as described supra.
# [5] = pH 5.8; read-out: Relative Activity
# [6] = purified potato phosphatase, assay B
# [7] = addition 5 mM; PEP 0.25 mM; control = 100%
# [8] = 5 mM; PEP 0.25 mM; no effect = ±15% control activity
# [9] = addition 0.001 mM; PEP 0.25 mM; control = 100%
# [10] = pH 5.8, read-out: Relative Activity
molecule,measurement,setting,value
O=C1O[C@H]([C@@H](O)CO)C(O)=C1O [Ascorbate],activity at 5000 µM,potato phosphatase [1]; [5],12%
[Co+2] [Co^2+],activation of the phosphatase,potato phosphatase [2],about 30%
[Cl-].[Cl-].[Zn+2] [ZnCl2],inhibition of phosphatase activity,"potato phosphatase [2]; 5 mM, in place of added Mg2+",completely inhibited
[Cl-].[Na+] [NaCl],effect on enzyme activity,potato phosphatase [1],no effect
O=C(O)CN(CCOCCOCCN(CC(=O)O)CC(=O)O)CC(=O)O [EGTA],activity at 5000 µM,potato phosphatase [1]; [5],72%
C=C1[C@@H](O)[C@@H]2O[C@]3(CC[C@H](/C=C/[C@@H](C)[C@@H]4CC(C)=C[C@@]5(O[C@H](C[C@@](C)(O)C(=O)O)CC[C@H]5O)O4)O3)CC[C@H]2O[C@@H]1[C@@H](O)C[C@H](C)[C@H]1O[C@@]2(CCCCO2)CC[C@H]1C [okadaic acid],effect on enzyme activity,potato phosphatase [1]; 1 μM; PEP 0.25 mM; no effect = ±15% control activity,no effect
Nc1ncnc2c1ncn2[C@@H]1O[C@H](COP(=O)(O)OP(=O)(O)O)[C@@H](O)[C@H]1O [Mg-ADP],Vmax,potato phosphatase [3]; [6],46 units/mg
C=C(OP(=O)(O)O)C(=O)O [PEP],Vmax,potato phosphatase [3]; [6],764 units/mg
N[C@@H](CC(=O)O)C(=O)O [Asparatate],Relative Activity,potato phosphatase [1]; [7],64%
NC(CCC(=O)O)C(=O)O (stereo not drawn) [Glutaamate],activity at 5000 µM,potato phosphatase [1]; [5],30%
[Mn+2] [Mn^2+],activation of the phosphatase,potato phosphatase [2],about 30%
O=P(O)(O)OC1O[C@H](CO)[C@@H](O)[C@H](O)[C@H]1O (stereo partly drawn) [Glc-1-P],activity of purified enzyme with compound as substrate,potato phosphatase [3]; assay B,little or no activity
Nc1ncnc2c1ncn2[C@@H]1O[C@H](COP(=O)(O)O)[C@@H](O)[C@H]1O [AMP],activity of purified enzyme with compound as substrate,potato phosphatase [3]; assay B,little or no activity
[O]=[V]([O-])([O-])[O-] [Vanadate],effect on the phosphatase-caused decrease in protein P-Tyr content,[4],negated
same,Relative Activity,potato phosphatase [1]; addition 0.005 mM; PEP 0.25 mM; control = 100%,40%
same,Relative Activity,potato phosphatase [1]; addition 0.05 mM; PEP 0.25 mM; control = 100%,7%
O=P(O)(O)OP(=O)(O)O [PPi],Km,"potato phosphatase [3]; apparent Km, purified potato phosphatase, assay B",4.42 mM
same,Vmax,potato phosphatase [3]; [6],1728 units/mg
CCN1C(=O)C=CC1=O [N-ethylmaleimide],effect on enzyme activity after preincubation of enzyme,"potato phosphatase [1]; 1 mM, preincubation up to 2 min at 25° C",no effect
NH4 Cl,effect on enzyme activity,potato phosphatase [1]; [8],no effect
Molybdate,Relative Activity,potato phosphatase [1]; [9],40%
same,Relative Activity,potato phosphatase [1]; addition 0.01 mM; PEP 0.25 mM; control = 100%,7%
same,Relative Activity,potato phosphatase [1]; addition 1 mM; PEP 0.25 mM; control = 100%,0%
C[C@@H](OP(=O)(O)O)[C@H](N)C(=O)O [P-Tbr],Vmax,potato phosphatase [3]; [6],99 units/mg
O=C(O)C(O)C(O)C(=O)O (stereo not drawn) [tartrate],effect on enzyme activity,potato phosphatase [1]; [8],no effect
"O=P(O)(O)OC1C(OP(=O)(O)O)C(OP(=O)(O)O)C(OP(=O)(O)O)C(OP(=O)(O)O)C1OP(=O)(O)O (stereo not drawn) [Phytate, the salt of 1,2,3,4,5,6-cyclohexanehexolphosphoric acid]",activity at 100 µM,potato phosphatase [1]; [5],48%
N[C@@H](CCC(=O)N[C@@H](CS)C(=O)NCC(=O)O)C(=O)O [GSH],activity at 5000 µM,potato phosphatase [1]; [10],131%
[Cl-].[K+] [KCl],effect on enzyme activity,potato phosphatase [1]; [8],no effect
[Ca+2] [Ca^2+],activation of the phosphatase,potato phosphatase [2],about 30%
[F-].[Na+] [NaF],Relative Activity,potato phosphatase [1]; [7],56%
[Cl-].[Cl-].[Mg+2] [Mg^2+],activation of the phosphatase,potato phosphatase [2],approximately 40%
O=C(O)CC(O)(CC(=O)O)C(=O)O [Mg-citrate],effect on enzyme activity,potato phosphatase [1]; [8],no effect
O=C(O)CN(CCN(CC(=O)O)CC(=O)O)CC(=O)O [EDTA],activity at 5000 µM,potato phosphatase [1]; [10],32%
same,inhibition at 5000 µM,"potato phosphatase [2]; pH 5.8, read-out: reduction of activity",~65%
B1,phosphoprotein phosphatase activity,potato phosphatase [3]; phosvitin at 50 μg/ml (125 .eta.M),220 units/mg
same,Relative Activity,potato phosphatase [1]; [9],19%
